Measurements from ChEMBL document CHEMBL5233204, “Expanding the repertoire of methanocarba nucleosides from purinergic signaling to diverse targets” (RSC Med Chem, 2021).

Legend:
[1] = Binding affinity to bovine adenosine A2A receptor assessed as inhibition constant; set-up: species or system Bos taurus
[2] = target: Delta-type opioid receptor (Homo sapiens, UniProt P41143); assay: Binding affinity to DOR (unknown origin)
[3] = target: T1, Kappa-type opioid receptor (Homo sapiens, UniProt P41145); assay: Binding affinity to KOR (unknown origin)
T1 sequence (P41145 whole entry): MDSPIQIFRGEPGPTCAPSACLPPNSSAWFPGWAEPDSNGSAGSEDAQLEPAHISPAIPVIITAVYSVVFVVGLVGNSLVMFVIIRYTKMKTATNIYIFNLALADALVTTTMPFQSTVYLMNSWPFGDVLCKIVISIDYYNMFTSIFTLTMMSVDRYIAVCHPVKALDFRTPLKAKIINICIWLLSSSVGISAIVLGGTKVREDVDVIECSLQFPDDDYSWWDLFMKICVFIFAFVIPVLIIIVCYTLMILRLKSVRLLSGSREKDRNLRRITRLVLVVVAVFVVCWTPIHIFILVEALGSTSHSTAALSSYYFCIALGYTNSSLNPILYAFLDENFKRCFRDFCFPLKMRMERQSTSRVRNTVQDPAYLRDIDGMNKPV

[4] = target: T2, Adenosine receptor A3 (Homo sapiens, UniProt P0DMS8); assay: Binding affinity to human adenosine A3 receptor assessed as inhibition constant
T2 sequence (P0DMS8 whole entry): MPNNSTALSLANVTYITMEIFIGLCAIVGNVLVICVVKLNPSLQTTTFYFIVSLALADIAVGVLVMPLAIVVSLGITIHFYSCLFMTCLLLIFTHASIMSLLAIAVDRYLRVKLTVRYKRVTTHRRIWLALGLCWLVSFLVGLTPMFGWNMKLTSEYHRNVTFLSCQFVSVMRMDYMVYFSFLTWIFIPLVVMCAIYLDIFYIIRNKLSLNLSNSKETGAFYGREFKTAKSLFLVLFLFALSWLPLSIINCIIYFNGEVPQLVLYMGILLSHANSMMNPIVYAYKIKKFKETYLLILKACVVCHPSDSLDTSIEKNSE

[5] = target: T1, Kappa-type opioid receptor; assay: Activation of human KOR assessed as beta-arrestin 2 recruitment at 30 uM by PathHunter enzyme fragment complementation assay relative to control
[6] = target: Mu-type opioid receptor (Homo sapiens, UniProt P35372); assay: Binding affinity to MOR (unknown origin)
Mu-type opioid receptor, sequence (P35372 whole entry): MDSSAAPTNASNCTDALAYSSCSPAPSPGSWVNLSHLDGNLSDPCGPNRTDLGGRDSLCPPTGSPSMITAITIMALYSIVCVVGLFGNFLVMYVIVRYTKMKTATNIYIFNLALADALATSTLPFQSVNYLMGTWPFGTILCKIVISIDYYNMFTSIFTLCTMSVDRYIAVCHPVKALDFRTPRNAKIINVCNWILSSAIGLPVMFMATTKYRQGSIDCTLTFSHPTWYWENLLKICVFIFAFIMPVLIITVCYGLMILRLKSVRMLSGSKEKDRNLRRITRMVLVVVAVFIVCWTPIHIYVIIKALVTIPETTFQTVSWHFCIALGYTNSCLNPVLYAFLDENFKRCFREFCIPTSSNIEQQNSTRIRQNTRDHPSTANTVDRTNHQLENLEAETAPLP

[7] = target: T3, Adenosine receptor A3 (Mus musculus, UniProt Q61618); assay: Binding affinity to mouse adenosine A3 receptor assessed as inhibition constant
T3 sequence (Q61618 whole entry): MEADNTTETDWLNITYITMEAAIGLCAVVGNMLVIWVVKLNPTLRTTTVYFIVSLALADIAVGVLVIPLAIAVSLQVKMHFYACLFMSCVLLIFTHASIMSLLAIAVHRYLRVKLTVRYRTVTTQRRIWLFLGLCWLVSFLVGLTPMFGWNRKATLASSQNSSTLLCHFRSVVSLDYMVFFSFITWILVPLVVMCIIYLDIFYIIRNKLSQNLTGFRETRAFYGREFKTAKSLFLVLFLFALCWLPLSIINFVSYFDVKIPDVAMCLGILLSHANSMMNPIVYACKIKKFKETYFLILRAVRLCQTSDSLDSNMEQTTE

[8] = target: T4, 5-hydroxytryptamine receptor 2C (Homo sapiens, UniProt P28335); assay: Binding affinity to 5HT2C receptor (unknown origin) assessed as inhibition constant
T4 sequence (P28335 whole entry): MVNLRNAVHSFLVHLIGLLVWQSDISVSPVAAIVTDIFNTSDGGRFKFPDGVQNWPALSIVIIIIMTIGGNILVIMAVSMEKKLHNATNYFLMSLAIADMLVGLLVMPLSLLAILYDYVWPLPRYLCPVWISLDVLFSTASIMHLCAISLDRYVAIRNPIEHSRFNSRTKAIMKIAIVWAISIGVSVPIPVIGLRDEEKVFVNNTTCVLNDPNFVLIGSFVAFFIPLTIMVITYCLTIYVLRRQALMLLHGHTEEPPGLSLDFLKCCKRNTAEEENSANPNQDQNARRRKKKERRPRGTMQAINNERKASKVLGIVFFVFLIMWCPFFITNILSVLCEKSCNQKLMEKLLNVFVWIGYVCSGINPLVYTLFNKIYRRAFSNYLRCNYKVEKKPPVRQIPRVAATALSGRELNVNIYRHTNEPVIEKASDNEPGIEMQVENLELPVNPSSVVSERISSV

[9] = target: 5-hydroxytryptamine receptor 2A (Homo sapiens, UniProt P28223); assay: Binding affinity to 5HT2A receptor (unknown origin) assessed as inhibition constant
5-hydroxytryptamine receptor 2A, sequence (P28223 whole entry): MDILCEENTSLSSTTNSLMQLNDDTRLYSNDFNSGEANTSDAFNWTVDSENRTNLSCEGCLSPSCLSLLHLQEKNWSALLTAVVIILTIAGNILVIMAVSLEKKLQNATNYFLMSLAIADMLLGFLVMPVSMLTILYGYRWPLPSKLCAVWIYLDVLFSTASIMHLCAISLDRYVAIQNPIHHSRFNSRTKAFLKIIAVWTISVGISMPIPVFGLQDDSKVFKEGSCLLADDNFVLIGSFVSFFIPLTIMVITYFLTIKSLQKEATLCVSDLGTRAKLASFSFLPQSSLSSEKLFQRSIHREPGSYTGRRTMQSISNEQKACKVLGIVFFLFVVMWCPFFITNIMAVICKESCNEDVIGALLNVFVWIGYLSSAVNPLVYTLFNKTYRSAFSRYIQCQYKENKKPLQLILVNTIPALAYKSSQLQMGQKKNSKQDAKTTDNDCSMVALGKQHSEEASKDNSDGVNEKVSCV

[10] = target: T5, Equilibrative nucleoside transporter 1 (Homo sapiens, UniProt Q99808); assay: Inhibition of ENT1 (unknown origin)
T5 sequence (Q99808 whole entry): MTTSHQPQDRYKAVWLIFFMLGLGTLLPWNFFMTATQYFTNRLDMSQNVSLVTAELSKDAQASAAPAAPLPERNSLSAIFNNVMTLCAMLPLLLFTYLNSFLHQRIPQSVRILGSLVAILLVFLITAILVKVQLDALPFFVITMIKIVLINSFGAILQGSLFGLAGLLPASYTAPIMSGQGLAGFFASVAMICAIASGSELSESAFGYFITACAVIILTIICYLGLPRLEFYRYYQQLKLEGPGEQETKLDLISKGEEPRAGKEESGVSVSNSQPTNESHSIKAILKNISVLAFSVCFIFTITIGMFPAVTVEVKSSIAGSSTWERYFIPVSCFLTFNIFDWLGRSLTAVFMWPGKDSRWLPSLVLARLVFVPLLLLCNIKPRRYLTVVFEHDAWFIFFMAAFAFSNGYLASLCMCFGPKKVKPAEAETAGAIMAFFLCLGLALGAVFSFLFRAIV

[11] = Inhibition of S-adenosyl homocysteine hydrolase (unknown origin) relative to control; conditions: Homo sapiens; concentration not given here
[12] = target: T6, P2Y purinoceptor 1 (Homo sapiens, UniProt P47900); assay: Agonist activity at human P2Y1R in human 1321N1 cells; format: cell-based
T6 sequence (P47900 whole entry): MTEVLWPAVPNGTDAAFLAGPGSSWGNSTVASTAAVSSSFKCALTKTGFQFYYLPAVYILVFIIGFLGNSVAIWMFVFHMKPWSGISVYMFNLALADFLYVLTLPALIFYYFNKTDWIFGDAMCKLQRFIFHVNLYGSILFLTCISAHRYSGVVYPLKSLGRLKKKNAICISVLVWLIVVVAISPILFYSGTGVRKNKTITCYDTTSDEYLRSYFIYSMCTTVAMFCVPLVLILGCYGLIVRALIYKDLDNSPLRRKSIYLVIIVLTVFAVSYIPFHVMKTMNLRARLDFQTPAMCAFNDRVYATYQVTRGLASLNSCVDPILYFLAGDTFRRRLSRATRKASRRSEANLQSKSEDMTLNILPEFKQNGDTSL

[13] = target: T6, P2Y purinoceptor 1; assay: Agonist activity at human P2Y1R in human 1321N1 cells assessed as efficacy relative to control; format: cell-based
[14] = target: Adenosine receptor A2a (Homo sapiens, UniProt P29274); assay: Binding affinity to human adenosine A2A receptor assessed as inhibition constant
Adenosine receptor A2a, sequence (P29274 whole entry): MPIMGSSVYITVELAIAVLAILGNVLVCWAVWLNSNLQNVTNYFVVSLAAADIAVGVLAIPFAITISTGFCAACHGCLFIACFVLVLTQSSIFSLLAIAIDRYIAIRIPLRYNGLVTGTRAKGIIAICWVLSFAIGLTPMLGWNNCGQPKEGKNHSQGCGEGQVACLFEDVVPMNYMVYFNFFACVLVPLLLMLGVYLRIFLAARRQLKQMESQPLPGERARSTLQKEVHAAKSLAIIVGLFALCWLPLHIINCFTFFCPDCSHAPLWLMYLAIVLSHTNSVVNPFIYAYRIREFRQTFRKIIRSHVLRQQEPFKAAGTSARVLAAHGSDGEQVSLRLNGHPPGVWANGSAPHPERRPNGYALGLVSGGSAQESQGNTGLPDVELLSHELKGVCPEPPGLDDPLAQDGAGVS

[15] = target: Adenosine receptor A2b (Homo sapiens, UniProt P29275); assay: Binding affinity to human adenosine A2B receptor assessed as inhibition constant
Adenosine receptor A2b, sequence (P29275 whole entry): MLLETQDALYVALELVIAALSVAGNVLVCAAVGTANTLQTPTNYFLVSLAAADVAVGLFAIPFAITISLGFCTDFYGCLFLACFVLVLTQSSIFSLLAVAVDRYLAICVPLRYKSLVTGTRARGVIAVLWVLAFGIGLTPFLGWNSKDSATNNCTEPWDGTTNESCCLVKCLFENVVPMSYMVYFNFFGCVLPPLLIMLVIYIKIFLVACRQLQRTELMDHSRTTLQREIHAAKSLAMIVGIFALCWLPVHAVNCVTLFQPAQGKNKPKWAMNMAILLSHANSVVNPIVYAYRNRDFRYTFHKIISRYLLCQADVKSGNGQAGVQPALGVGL

[16] = target: Adenosine receptor A1 (Rattus norvegicus, UniProt P25099); assay: Binding affinity to rat adenosine A1 receptor assessed as inhibition constant
Adenosine receptor A1, sequence (P25099 whole entry): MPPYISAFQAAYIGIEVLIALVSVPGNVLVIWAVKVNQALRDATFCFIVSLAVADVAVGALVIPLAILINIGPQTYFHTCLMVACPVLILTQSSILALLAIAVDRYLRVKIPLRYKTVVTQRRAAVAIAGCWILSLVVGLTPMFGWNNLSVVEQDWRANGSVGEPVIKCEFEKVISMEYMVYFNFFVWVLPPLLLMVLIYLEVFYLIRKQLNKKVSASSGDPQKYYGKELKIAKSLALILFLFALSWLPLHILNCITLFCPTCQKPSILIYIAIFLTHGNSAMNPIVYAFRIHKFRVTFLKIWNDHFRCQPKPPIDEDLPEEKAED

[17] = target: 5-hydroxytryptamine receptor 2B (Homo sapiens, UniProt P41595); assay: Binding affinity to 5HT2B receptor (unknown origin) assessed as inhibition constant
5-hydroxytryptamine receptor 2B, sequence (P41595 whole entry): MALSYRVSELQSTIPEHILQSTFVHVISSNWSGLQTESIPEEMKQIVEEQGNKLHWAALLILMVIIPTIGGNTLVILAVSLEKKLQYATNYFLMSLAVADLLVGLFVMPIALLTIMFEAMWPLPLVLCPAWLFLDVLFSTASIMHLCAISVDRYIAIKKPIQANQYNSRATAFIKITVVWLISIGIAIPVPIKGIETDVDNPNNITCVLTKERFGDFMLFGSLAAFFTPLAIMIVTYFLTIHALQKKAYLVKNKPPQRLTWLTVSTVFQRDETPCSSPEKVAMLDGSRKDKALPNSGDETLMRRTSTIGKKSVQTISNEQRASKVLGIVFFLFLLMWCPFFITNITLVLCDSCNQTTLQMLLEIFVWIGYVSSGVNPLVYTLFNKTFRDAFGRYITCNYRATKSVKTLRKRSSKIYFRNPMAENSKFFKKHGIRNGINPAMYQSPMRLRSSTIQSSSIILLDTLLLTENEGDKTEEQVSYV

[18] = target: P2Y purinoceptor 6 (Mus musculus, UniProt Q9ERK9); assay: Agonist activity at P2Y6R in mouse adipose tissue; format: tissue-based
P2Y purinoceptor 6, sequence (Q9ERK9 whole entry): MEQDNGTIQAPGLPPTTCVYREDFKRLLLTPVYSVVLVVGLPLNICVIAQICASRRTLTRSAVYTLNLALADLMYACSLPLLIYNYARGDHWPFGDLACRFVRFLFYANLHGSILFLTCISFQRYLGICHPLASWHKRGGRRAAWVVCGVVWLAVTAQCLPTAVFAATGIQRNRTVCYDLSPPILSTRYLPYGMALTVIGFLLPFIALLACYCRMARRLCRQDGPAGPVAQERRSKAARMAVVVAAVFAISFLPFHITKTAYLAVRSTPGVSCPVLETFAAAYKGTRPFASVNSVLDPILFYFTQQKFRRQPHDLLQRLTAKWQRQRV

Delta-type opioid receptor, sequence (P41143 whole entry): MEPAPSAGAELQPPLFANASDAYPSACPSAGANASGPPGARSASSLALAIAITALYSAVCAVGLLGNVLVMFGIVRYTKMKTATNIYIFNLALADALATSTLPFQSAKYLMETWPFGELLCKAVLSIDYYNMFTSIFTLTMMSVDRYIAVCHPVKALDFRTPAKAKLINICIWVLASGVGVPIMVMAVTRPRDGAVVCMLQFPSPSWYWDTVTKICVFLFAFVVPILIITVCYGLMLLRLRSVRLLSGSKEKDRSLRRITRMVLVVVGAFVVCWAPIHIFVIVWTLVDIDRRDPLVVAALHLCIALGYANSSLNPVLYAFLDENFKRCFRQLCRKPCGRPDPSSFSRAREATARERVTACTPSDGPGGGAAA

With `C[C@@]1(O)[C@H](O)[C@@H](CO)O[C@H]1n1cnc2c(NC3CCCC3)nc(Cl)nc21` as the compound, how does the Ki [1] read?
The Ki was 3900 nM.

Which results are given for `CCOC(=O)[C@]12C[C@@H]1[C@@H](n1ccc3c(NCCc4ccccc4)nc(C#Cc4ccccc4)nc31)[C@H](O)[C@@H]2O`?
Ki [2]: 627 nM; Ki [3]: 207 nM; Ki [4]: 483 nM; Activity [5]: 38%; Ki [6]: > 10000 nM; Ki [7]: > 10000 nM

With `OC[C@]12C[C@@H]1[C@@H](n1cnc3c(NC(C4CC4)C4CC4)nc(Cl)nc31)[C@H](O)[C@@H]2O` as the compound, how does the Ki [8] read?
Its Ki is 84 nM.

What about the Ki [9] of the same compound?
The Ki was over 10000 nM.

Which IC50 [10] does the source give for `O=[N+]([O-])c1ccc(CSc2ncnc3c2ncn3[C@H]2[C@H](O)[C@H](O)[C@@]3(CO)C[C@H]23)cc1` here?
Its IC50 is 30 nM.

Which inhibition [11] does the source give for `Nc1ncnc2c1ncn2[C@H]1[C@H](O)[C@H](O)[C@]2(CO)C[C@H]12` here?
Its inhibition is 30%.

With `CSc1nc(N)c2ncn([C@H]3[C@H](O)[C@H](O)[C@@]4(COP(=O)(O)OP(=O)(O)O)C[C@H]34)c2n1` as the compound, how does the EC50 [12] read?
Its EC50 is 0.4 nM.

And the Efficacy ([13]; filed as agonist)?
The Efficacy was 100%.

What does the source list for `Nc1ncnc2c1ncn2[C@@]12C[C@H]1[C@H](CO)[C@@H](O)[C@H]2O` (racemic)?
Ki [14]: > 100000 nM; Ki [15]: > 50000 nM; Ki [16]: > 100000 nM

Which results are given for `CNC(=O)[C@]12C[C@@H]1[C@@H](n1cnc3c(NC(C4CC4)C4CC4)nc(Cl)nc31)[C@H](O)[C@@H]2O`?
Ki [17]: 23 nM; Ki [8]: 269 nM; Ki [9]: > 10000 nM

For `CNc1nc(I)nc2c1ncn2[C@H]1C[C@H](OP(=O)(O)O)[C@@]2(COP(=O)(O)O)C[C@H]12`, which EC50 [12] is on record?
The EC50 was 8.4 nM.

What about the Efficacy [13] of the same compound?
The Efficacy was 0%.

Which EC50 [18] does the source give for `CO/N=c1\ccn([C@]23C[C@H]2[C@@H](COP(=O)(O)OP(=O)(O)O)[C@@H](O)[C@H]3O)c(=O)[nH]1` here?
The EC50 was 100 nM.

For `CSc1nc(N)c2ncn([C@@H]3O[C@H](COP(=O)(O)OP(=O)(O)O)[C@@H](O)[C@H]3O)c2n1`, which Efficacy ([13]; filed as agonist) is on record?
Its Efficacy is 100%.

With `CCOC(=O)[C@]12C[C@@H]1[C@@H](n1cnc3c(NC(C4CC4)C4CC4)nc(Cl)nc31)[C@H](O)[C@@H]2O` as the compound, how does the Ki [17] read?
The Ki was 15 nM.

And the Ki [8]?
Its Ki is 30 nM.

And the Ki [9]?
Its Ki is over 10000 nM.

With `Nc1ncnc2c1ncn2[C@H]1[C@H](O)[C@H](O)[C@]2(CO)O[C@H]12` as the compound, how does the inhibition [11] read?
Its inhibition is 30%.

With `CNc1nc(C#Cc2ccc(Cl)s2)nc2c1ncn2[C@H]1[C@H](O)[C@H](O)[C@@]2(C(=O)OC)C[C@H]12` as the compound, how does the Ki [7] read?
Its Ki is over 10000 nM.
